Experimental data reported in ChEMBL document CHEMBL1201862, “PubChem BioAssay data set” (2004).
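In this assay, cells in 96-well plates receive the compound at five concentrations for 48 hours. Endpoints are linearly interpolated between the surrounding concentrations. The concentration for 50% growth inhibition is given as GI50.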 Active and inactive are the calls of the source. Cut-off read from the data, not from the text of the source: active = GI50 up to about 1.1 µM and inactive = higher.

Key:
Experiment in all cases: growth of human tumour cells (NCI), 48 h
SNB-19 = tested on: SNB-19
RPMI-8226 = tested on: RPMI-8226
CAKI-1 = tested on: CAKI-1
NCI-H226 = tested on: NCI-H226
SR = tested on: SR
K562 = tested on: K562
TK-10 = tested on: TK-10
EKVX = tested on: EKVX
OVCAR-4 = tested on: OVCAR-4
DU-145 = tested on: DU-145
HCC 2998 = tested on: HCC 2998
HOP-62 = tested on: HOP-62
786-0 = tested on: 786-0
MDA-N = tested on: MDA-N
BT-549 = tested on: BT-549
HT-29 = tested on: HT-29
Malme-3M = tested on: Malme-3M
SN12C = tested on: SN12C
RXF 393 = tested on: RXF 393
SF-268 = tested on: SF-268
SK-MEL-5 = tested on: SK-MEL-5
MOLT-4 = tested on: MOLT-4
HCT-15 = tested on: HCT-15
M14 = tested on: M14
HL-60 = tested on: HL-60
OVCAR-8 = tested on: OVCAR-8
KM12 = tested on: KM12
CCRF-CEM = tested on: CCRF-CEM
NCI-H522 = tested on: NCI-H522
OVCAR-3 = tested on: OVCAR-3
SF-539 = tested on: SF-539
NCI-H23 = tested on: NCI-H23
SK-OV-3 = tested on: SK-OV-3
SNB-75 = tested on: SNB-75
UACC-257 = tested on: UACC-257
ACHN = tested on: ACHN
NCI-H460 = tested on: NCI-H460
HCT-116 = tested on: HCT-116
U-251 = tested on: U-251
SK-MEL-28 = tested on: SK-MEL-28
SW-620 = tested on: SW-620
MDA-MB-231 = tested on: MDA-MB-231
COLO 205 = tested on: COLO 205
PC-3 = tested on: PC-3
NCI/ADR-RES = tested on: NCI/ADR-RES
OVCAR-5 = tested on: OVCAR-5
UACC-62 = tested on: UACC-62
T47D = tested on: T47D
MCF7 = tested on: MCF7
SK-MEL-2 = tested on: SK-MEL-2
SF-295 = tested on: SF-295
A549 = tested on: A549
MDA-MB-435 = tested on: MDA-MB-435
LOX IMVI = tested on: LOX IMVI
A498 = tested on: A498
Hs-578T = tested on: Hs-578T
IGROV-1 = tested on: IGROV-1
UO-31 = tested on: UO-31
HOP-92 = tested on: HOP-92

Q: Which GI50 (SNB-19) does the source give for `Cc1cccc2c1c(=O)c1c(O)c3c(cc1n2C)OC(C)(C)C=C3` here?
A: > 10 µM (inactive)

Q: And the GI50 (RPMI-8226)?
A: > 10 µM (inactive)

Q: What about the GI50 (CAKI-1) of the same molecule?
A: > 10 µM (inactive)

Q: And the GI50 (NCI-H226)?
A: 6.46 µM (inactive)

Q: What about the GI50 (SR) of the same molecule?
A: 9.53 µM (inactive)

Q: And the GI50 (K562)?
A: > 10 µM (inactive)

Q: And the GI50 (TK-10)?
A: > 10 µM (inactive)

Q: And the GI50 (EKVX)?
A: > 10 µM (inactive)

Q: What about the GI50 (OVCAR-4) of the same molecule?
A: > 10 µM (inactive)

Q: And the GI50 (DU-145)?
A: > 10 µM (inactive)

Q: What about the GI50 (HCC 2998) of the same molecule?
A: > 10 µM (inactive)

Q: What about the GI50 (HOP-62) of the same molecule?
A: > 10 µM (inactive)

Q: And the GI50 (786-0)?
A: > 10 µM (inactive)

Q: And the GI50 (MDA-N)?
A: > 10 µM (inactive)

Q: What about the GI50 (BT-549) of the same molecule?
A: > 10 µM (inactive)

Q: What about the GI50 (HT-29) of the same molecule?
A: 3.59 µM (inactive)

Q: What about the GI50 (Malme-3M) of the same molecule?
A: > 10 µM (inactive)

Q: What about the GI50 (SN12C) of the same molecule?
A: > 10 µM (inactive)

Q: And the GI50 (RXF 393)?
A: > 10 µM (inactive)

Q: What about the GI50 (SF-268) of the same molecule?
A: > 10 µM (inactive)

Q: And the GI50 (SK-MEL-5)?
A: > 10 µM (inactive)

Q: What about the GI50 (MOLT-4) of the same molecule?
A: > 10 µM (inactive)

Q: What about the GI50 (HCT-15) of the same molecule?
A: > 10 µM

Q: And the GI50 (M14)?
A: > 10 µM (inactive)

Q: And the GI50 (HL-60)?
A: > 10 µM (inactive)

Q: What about the GI50 (OVCAR-8) of the same molecule?
A: > 10 µM (inactive)

Q: What about the GI50 (KM12) of the same molecule?
A: > 10 µM (inactive)

Q: And the GI50 (CCRF-CEM)?
A: > 10 µM (inactive)

Q: What about the GI50 (NCI-H522) of the same molecule?
A: > 10 µM (inactive)

Q: And the GI50 (OVCAR-3)?
A: > 10 µM (inactive)

Q: What about the GI50 (SF-539) of the same molecule?
A: > 10 µM (inactive)

Q: What about the GI50 (NCI-H23) of the same molecule?
A: > 10 µM (inactive)

Q: And the GI50 (SK-OV-3)?
A: > 10 µM (inactive)

Q: What about the GI50 (SNB-75) of the same molecule?
A: > 10 µM (inactive)

Q: What about the GI50 (UACC-257) of the same molecule?
A: > 10 µM (inactive)

Q: And the GI50 (ACHN)?
A: > 10 µM (inactive)

Q: And the GI50 (NCI-H460)?
A: > 10 µM (inactive)

Q: What about the GI50 (HCT-116) of the same molecule?
A: > 10 µM (inactive)

Q: And the GI50 (U-251)?
A: > 10 µM (inactive)

Q: What about the GI50 (SK-MEL-28) of the same molecule?
A: > 10 µM (inactive)

Q: What about the GI50 (SW-620) of the same molecule?
A: > 10 µM (inactive)

Q: And the GI50 (MDA-MB-231)?
A: > 10 µM (inactive)

Q: What about the GI50 (COLO 205) of the same molecule?
A: > 10 µM (inactive)

Q: What about the GI50 (PC-3) of the same molecule?
A: > 10 µM (inactive)

Q: What about the GI50 (NCI/ADR-RES) of the same molecule?
A: > 10 µM (inactive)

Q: What about the GI50 (OVCAR-5) of the same molecule?
A: > 10 µM (inactive)

Q: What about the GI50 (UACC-62) of the same molecule?
A: > 10 µM (inactive)

Q: What about the GI50 (T47D) of the same molecule?
A: > 10 µM (inactive)

Q: What about the GI50 (MCF7) of the same molecule?
A: 6.15 µM (inactive)

Q: And the GI50 (SK-MEL-2)?
A: > 10 µM (inactive)

Q: What about the GI50 (SF-295) of the same molecule?
A: > 10 µM (inactive)

Q: What about the GI50 (A549) of the same molecule?
A: > 10 µM (inactive)

Q: And the GI50 (MDA-MB-435)?
A: > 10 µM (inactive)

Q: And the GI50 (LOX IMVI)?
A: > 10 µM (inactive)

Q: And the GI50 (A498)?
A: > 10 µM (inactive)

Q: And the GI50 (Hs-578T)?
A: > 10 µM (inactive)

Q: And the GI50 (IGROV-1)?
A: > 10 µM (inactive)

Q: What does the source list for `Cc1ccc2c(c1)C=CC1(O2)N(c2ccccc2)C(=S)OC1(C)C` (stereo not drawn)?
A: GI50 (SNB-19): > 100 µM (inactive); GI50 (RPMI-8226): 22.9 µM (inactive); GI50 (CAKI-1): > 100 µM (inactive); GI50 (NCI-H226): > 100 µM (inactive); GI50 (SR): 14.5 µM (inactive); GI50 (K562): 7.29 µM (inactive); GI50 (TK-10): > 100 µM (inactive); GI50 (EKVX): 30 µM (inactive); GI50 (OVCAR-4): 25.8 µM (inactive); GI50 (DU-145): > 100 µM (inactive); GI50 (HCC 2998): 76.9 µM (inactive); GI50 (HOP-62): > 100 µM (inactive); GI50 (786-0): > 100 µM (inactive); GI50 (MDA-N): 29.1 µM (inactive); GI50 (BT-549): > 100 µM (inactive); GI50 (HT-29): 41.5 µM (inactive); GI50 (SN12C): > 100 µM (inactive); GI50 (UO-31): 28.5 µM (inactive); GI50 (RXF 393): 73.3 µM (inactive); GI50 (SF-268): 89.5 µM (inactive); GI50 (SK-MEL-5): 32.1 µM (inactive); GI50 (MOLT-4): 29.9 µM (inactive); GI50 (HCT-15): 46.2 µM; GI50 (M14): 43.8 µM (inactive); GI50 (HL-60): 5.37 µM (inactive); GI50 (OVCAR-8): > 100 µM (inactive); GI50 (KM12): 34.5 µM (inactive); GI50 (CCRF-CEM): 53 µM (inactive); GI50 (HOP-92): 12 µM (inactive); GI50 (OVCAR-3): 29.6 µM (inactive); GI50 (NCI-H23): 35.4 µM (inactive); GI50 (SK-OV-3): 21.4 µM (inactive); GI50 (SNB-75): > 100 µM (inactive); GI50 (UACC-257): 45.1 µM (inactive); GI50 (ACHN): > 100 µM (inactive); GI50 (NCI-H460): > 100 µM (inactive); GI50 (HCT-116): 21.5 µM (inactive); GI50 (U-251): 83.8 µM (inactive); GI50 (SK-MEL-28): > 100 µM (inactive); GI50 (SW-620): 75.5 µM (inactive); GI50 (MDA-MB-231): > 100 µM (inactive); GI50 (COLO 205): > 100 µM (inactive); GI50 (PC-3): 9.27 µM (inactive); GI50 (NCI/ADR-RES): > 100 µM (inactive); GI50 (OVCAR-5): 33.7 µM (inactive); GI50 (UACC-62): 40.9 µM (inactive); GI50 (T47D): 3.86 µM (inactive); GI50 (MCF7): 21.3 µM (inactive); GI50 (SK-MEL-2): 29 µM (inactive); GI50 (SF-295): 48.2 µM (inactive); GI50 (A549): 67.5 µM (inactive); GI50 (MDA-MB-435): 22.1 µM (inactive); GI50 (LOX IMVI): > 100 µM (inactive); GI50 (A498): > 100 µM (inactive); GI50 (Hs-578T): 31.9 µM (inactive); GI50 (IGROV-1): 10.1 µM (inactive)
